From PMC10145651, “Modulation of the 5-Lipoxygenase Pathway by Chalcogen-Containing Inhibitors of Leukotriene A4 Hydrolase” (International Journal of Molecular Sciences, 2023)
Read-outs that look alike come from different tables or passages of the source.

Assays:
LTA4H [1] = biological target: T1, LTA4H (Homo sapiens, UniProt P09960); test: 5-LOX product formation from intact PMNs: LTB4 (cellular activity of LTA4H); format: cell-based; conditions: for inhibition of LTA4H (LTB4 production) in PMNs with exogenous AA: 10 µM inhibitor, 0–20 µM AA
T1 sequence (P09960 1-611): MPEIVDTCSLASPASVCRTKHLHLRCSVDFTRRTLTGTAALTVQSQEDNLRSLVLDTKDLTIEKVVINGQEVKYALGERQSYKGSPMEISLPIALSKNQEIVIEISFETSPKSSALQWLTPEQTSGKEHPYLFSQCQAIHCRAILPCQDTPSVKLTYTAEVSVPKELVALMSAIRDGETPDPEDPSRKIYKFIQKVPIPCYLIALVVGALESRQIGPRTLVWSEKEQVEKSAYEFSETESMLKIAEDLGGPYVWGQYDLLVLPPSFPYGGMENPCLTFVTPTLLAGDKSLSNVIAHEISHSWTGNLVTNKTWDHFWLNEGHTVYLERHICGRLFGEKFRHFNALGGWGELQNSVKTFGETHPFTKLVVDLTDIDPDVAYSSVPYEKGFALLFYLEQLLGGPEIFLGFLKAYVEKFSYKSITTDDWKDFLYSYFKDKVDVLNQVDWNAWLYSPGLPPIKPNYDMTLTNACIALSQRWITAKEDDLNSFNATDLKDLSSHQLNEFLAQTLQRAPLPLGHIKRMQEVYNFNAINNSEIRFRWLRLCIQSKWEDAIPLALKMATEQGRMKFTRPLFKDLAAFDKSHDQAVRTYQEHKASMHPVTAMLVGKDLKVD
Experimental: Human primary leukocytes were isolated from peripheral blood of healthy adult volunteers provided by the Institute of Transfusion Medicine at the University Hospital Greifswald as described before. All methods were performed in accordance with the Declaration of Helsinki. In brief, erythrocytes were removed by dextran sedimentation and leukocytes were separated by the density gradient centrifugation on a lymphocyte separation medium (Histopaque®-1077, Merck, Darmstadt, Germany). The remaining erythrocytes were removed by hypotonic lysis using water, and resulting polymorphonuclear neutrophils (PMNs) were resuspended in PBS containing 0.1% (w/v) glucose (PG buffer) or PG buffer with 1 mM CaCl2 (PGC buffer) as indicated. Resulting peripheral blood mononuclear cells (PBMC), including monocytes, were seeded in the RPMI 1640 medium supplemented with 10% (v/v) FCS, 100 U/mL penicillin, 100 µg/mL streptomycin and 2 mM L-glutamine in cell culture flasks (Greiner Bio-one, Frickenhausen, Germany) for 1.5 h at 37 °C and 5% CO2. Adherent monocytes were washed twice with PBS and were finally resuspended in the RPMI 1640 medium as described before.
PMNs (5 × 10^6 cells/mL) were diluted in PGC buffer and pre-incubated with the vehicle (0.1%; v/v) or compounds for 10 min at 37 °C prior to the stimulation with 2.5 µM A23187. After 10 min at 37 °C, treatments were stopped on ice with an equal volume of ice-cold methanol. Next, 530 µL acidified PBS containing 200 ng PGB1 as an internal standard were added to the sample followed by the solid phase extraction with on a RP18 column. […] Formed 5-LOX metabolites were analyzed as described previously.

LTA4H [2] = biological target: T1, LTA4H; test: Epoxide hydrolase inhibition assay with recombinant LTA4H (LTA4 to LTB4); format: biochemical; parameters: made in house; host or cells: Escherichia coli JM101; conditions: epoxide hydrolase activity, 10-40 μM LTA4, competitive inhibition model
Description: Human recombinant LTA4H was expressed in Escherichia coli JM101 strain and purified as described previously. In short, supernatant of lysed cells was loaded on a nickel affinity column followed by the purification steps with the Mono Q 5/50 and Superdex HiLoad 16/600 columns (Cytiva, Uppsala, Sweden). Protein purity was checked by sodium dodecyl-sulfate polyacrylamide gel electrophoresis (SDS-PAGE)(XCell SureLock Mini-Cell Electrophoresis System and PowerEase 300W Power Supply) with a NuPAGE Bis-Tris 4–12% gels (Invitrogen, Waltham, MA, USA) after every purification step.
Purified LTA4H (3 μg) was pre-incubated with 0–50 μM inhibitors on ice for 3 min and the epoxide hydrolase reaction was carried out with 10 μM, 20 μM or 40 μM LTA4 for 15 s in 100 μL 25 mM Tris-HCl pH 7.8 at room temperature. The incubation was stopped by addition of 2 vol of methanol, containing 300 pmol PGB2 (ε ~ 26,000 M^−1 cm^−1; λmax = 280 nm) as an internal standard, and followed by 1 vol of distilled water. […] The formation of LTB4 (ε ~ 50,000 M^−1 cm^−1) was determined at 270 nm. The Ki value for each inhibitor was calculated using the competitive inhibition model in the GraphPad Prism 9 program.

LTA4H [3] = biological target: T1, LTA4H; test: Thermal shift assay with differential scanning fluorimetry; format: binding; parameters: made in house; host or cells: Escherichia coli JM101; conditions: for Tm of LTA4H upon the addition of inhibitor: 0 to 200 µM inhibitor, increased from 57.5 °C without inhibitor
Experimental: DSF, also known as the thermal shift assay, was carried out in 25 mM Tris-HCl pH 7.8 containing 50 ng/µL LTA4H, 2X SYPRO Orange (Life Technologies, Carlsbad, CA, USA), 3% DMSO or 0–300 µM of an inhibitor. The assay was performed in a white 96-well Multiplate PCR Plate (Bio-Rad, Hercules, CA, USA) covered with the iCycler iQ Optical tape (Bio-Rad, Hercules, CA, USA). The total volume per well was 25 μL, consisting of 1 μL SYPRO Orange solution. Relative fluorescence intensities (RFU) were recorded with a C1000 Touch Thermal Cycler (Bio-Rad, Hercules, CA, USA) and a CFX-96 Real-Time System. […] The melting temperature (Tm) for each condition were obtained from the first derivative of melting curves and the affinity (Kd) and stability (Kb) values were calculated based on the Tm and concentration–response curves.

[4] = A23187-activated intact PMNs, LTB4 formation, read-out: IC50 on the activity of LTA4H (LTB4) in PMNs
[5] = from Tm concentration–response curves, read-out: Kd by differential scanning fluorimetry

Structure (SMILES)	inhibition of LTA4H (LTB4 production) in PMNs with exogenous AA (LTA4H [1])	IC50 (LTA4H [1]; [4]) [nM]	Ki (LTA4H [2]) [nM]	Tm of LTA4H upon the addition of inhibitor (LTA4H [3]) [°C]	Kd (LTA4H [3]; [5]) [nM]	IC50 (LTA4H [1]) [nM]	Kd (LTA4H [3]) [nM]
Nc1nc(-c2ccc(Cc3ccccc3)cc2)cs1 [ARM1, 4-(4-benzylphenyl) thiazol-2-amine, reference compound]	almost complete	600	1500	61.2	240 ± 10	–	–
Nc1nc(-c2ccc(Cc3ccccc3)cc2)co1 [TTO, 4-(4-benzylphenyl) oxazol-2-amine]	higher production of LTB4	800	3800	60.7	510 ± 40	–	–
Nc1nc(-c2ccc(Cc3ccccc3)cc2)c[se]1 [TTSe, 4-(4-benzylphenyl) selenazol-2-amine]	almost complete	–	4800	61.9	–	800	300 ± 20
